Data from PMC3196589, “Fluorescent Peptide Biosensor for Probing the Relative Abundance of Cyclin-Dependent Kinases in Living Cells” (PLoS ONE, 2011).
No end group written: not given here.

Legend:
Assay in all cases: Live-cell ratiometric quantification of CDKSENS-Cy3/Ctrl-Cy5 fluorescence
Type in all cases: cell-based
[1] = system: CDK/Cyclins in HeLa cells
Protocol: (§1) Cell culture media, serum and antibiotics were purchased from Invitrogen. HeLa, HS68, A549, MCF-7 and U2OS cells were obtained from ATCC and were cultured in Dulbecco's Modified Eagle Medium (DMEM)+Glutamax supplemented with 10% Fetal Calf Serum (FCS), 1 mM penicillin and 1 mM streptomycin at 37°C in an atmosphere containing 5% CO2. HT2-19 cells, provided by Dr. A.Porter, were cultured in DMEM supplemented with non essential amino acids, antibiotics, sodium pyruvate, glutamine, and 10% FCS and grown with 50 uM isopropyl-thiogalactoside (IPTG) for maximal induction of CDK1 [28]. Cell extracts were prepared in lysis buffer containing 50 mM TrisHCl, pH 7.4, 150 mM NaCl, 0.1% NP40, 0.1% Deoxycholate, 2 mM EDTA, 1 mM phenylmethlsulfonyl fluoride (PMSF), CompleteTM protease inhibitors (Roche), 50 mM NaF, 40 mM β-Glycero-phosphate, 1 mM Na3VO4 and normalized following spectrophotometric dosage at 280 nm. […] Samples were then processed for SDS-PAGE and CDK, Cyclin retention was detected by Western blotting.
(§2) For fixed observations, cells were treated for 20 minutes with paraformaldehyde, nuclei were stained with Hoechst 33342 (Sigma), and cells were mounted with Prolong Gold AntiFade Reagent (Invitrogen). Epifluorescence images were acquired on a Leica DM6000 microscope (Leica Microsystems) piloted by the Metamorph software (Universal Imaging). For colocalization experiments, images were acquired on a Zeiss axioplan2/LSM510 META confocal microscope. Live-cell imaging was performed on a Zeiss Axiovert 200 M piloted by the Metamorph software. Images were processed with ImageJ software.
(§3) CDKSENS-Cy3 and Ctrl-Cy5 were complexed individually with CADY2 and codelivered into cells. Live-cell imaging acquisitions were substracted for background signal corresponding to minimal fluorescence levels using Metamorph. Image J was then used for image analysis. Regions of interest (ROI) corresponding to 10–15 cells in which fluorescence appeared homogeneous were designed and the mean grey levels of fluorescence for each channel (Cy3 and Cy5) were quantified within these ROIs. For each experiment, and the mean ratiometric value of CDKSENS-Cy3/Ctrl-Cy5 was calculated from 3–4 different ROIs. Each experiment was performed 3–4 times to assess the robustness of the quantification strategy. All statistical analyses are presented by the mean and standard deviation.

[2] = system: CDK/Cyclins in MCF7 cells
Protocol: as §1, §2, §3

[3] = system: CDK/Cyclins in HT2-19 cells; settings: for Mean Ratio CDKSENS-Cy3/Ctrl-Cy5: mean +/- SD of 3 fields
Protocol: as §1, §2, §3

Substance: CDKSENS-Cy3: CDKSENS labelled with cyanine probe Cy3 (C(Cy3 maleimide)DKSENS)
- Mean Ratio CDKSENS-Cy3/Ctrl-Cy5 ([1]; HeLa (A549 experiment), mean +/- SD of 3 fields): 6,72+/−0,37
- Relative Mean Ratiometric Value ([1]; HeLa (A549 experiment), normalized to highest mean): 1+/−0,054
- Relative Mean Ratiometric Value ([1]; HeLa (HS68 experiment), normalized to highest mean): 1+/−0,039
- Mean Ratio CDKSENS-Cy3/Ctrl-Cy5 ([1]; HeLa (MCF7 experiment), mean +/- SD of 4 fields): 7,29+/−0,39
- Relative Mean Ratiometric Value ([1]; HeLa (MCF7 experiment), normalized to highest mean): 1+/−0,053
- Relative Mean Ratiometric Value ([1]; HeLa (U20S experiment), HeLa set to 1): 1+/−0,079
- Mean Ratio CDKSENS-Cy3/Ctrl-Cy5 ([1]; HeLa (U20S experiment), mean +/- SD of 4 fields): 6,79+/−0,53
- Mean Ratio CDKSENS-Cy3/Ctrl-Cy5 ([2]; MCF7, mean +/- SD of 4 fields): 5,99+/−0,33
- Relative Mean Ratiometric Value ([2]; MCF7, normalized to HeLa mean): 0.82+/−0,046
- decrease of CDKSENS-Cy3/Ctrl-Cy5 values, MCF7 vs HeLa ([2]; MCF7 compared to HeLa, range stated jointly for A549 and MCF7): 18–20%
- decrease of CDKSENS-Cy3/Ctrl-Cy5 ratio without IPTG ([3]; HT2-19, 4 days without IPTG vs 50 uM IPTG): 20%
- Mean Ratio CDKSENS-Cy3/Ctrl-Cy5 ([3]; HT219+IPTG): 5,37+/−0,18
- Relative Mean Ratiometric Value ([3]; HT219+IPTG, normalized to highest mean): 1+/−0,033
- Mean Ratio CDKSENS-Cy3/Ctrl-Cy5 ([3]; HT219 WO IPTG): 4,36+/−0,21
